According to patent US8114991B2, “Amino-1,3,5-triazines N-substituted with chiral bicyclic radicals, process for their preparation, compositions thereof, and their use as herbicides and plant growth regulators” (Bayer Cropscience AG, priority 2003, dated 2012):

Legend:
[1] = tested on: harmful plants such as Stellaria media, Lolium multiforum, Amaranthus retroflexus, Sinapis alba, Avena sativa and Setaria viridis; assay: Pre-emergence effect on weeds (greenhouse pot test); format: in vivo; conditions: application rate of 1 kg or less of active ingredient per hectare; scored after 3 to 4 weeks by comparison with untreated controls
In short: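 Seeds or rhizome pieces sown in sandy loam; test compounds (wettable powder or emulsion concentrate) applied pre-emergence to soil surface as aqueous suspension/emulsion at various dosages, 600 to 800 l water/ha. Greenhouse; plant/emergence damage scored visually after 3 to 4 weeks versus untreated controls.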

[2] = tested on: harmful plants such as Sinapis alba, Echinochloa crus-galli, Lolium multiflorum, Stellaria media, Cyperus iria, Amaranthus retroflexus, Setaria viridis, Avena …; assay: Post-emergence effect on weeds (greenhouse pot test); format: in vivo; conditions: application rate of 2 kg or less of active ingredient per hectare; treated in the three-leaf stage; scored after approx. 3 to 4 weeks by comparison with untreated controls

| SMILES | pre-emergence control of harmful plants (plant or emergence damage scored visually) [1] | melting point [°C] | herbicidal post-emergence activity against harmful plants (scored visually) [2] |
| --- | --- | --- | --- |
| C[C@@H](F)c1nc(N)nc(N[C@H]2c3ccccc3C[C@@H]2C)n1 [Compound 2.1, 2-Amino-4-[(1R,2S)-2-methyl-1-indanylamino]-6-[(1R)-1-fluoroethyl]-1,3,5-triazine] | very good pre-emergence control | 146 to 150 | very good herbicidal post-emergence activity |
| Cc1ccc2c(c1)[C@H](Nc1nc(C)nc(N)n1)CCC2 [Compound 8.12] | very good pre-emergence control | – | very good herbicidal post-emergence activity |
| CCc1nc(N)nc(N[C@@H]2CCCc3c(C)cc(C)cc32)n1 [Compound 8.38] | very good pre-emergence control | – | very good herbicidal post-emergence activity |
| CC(F)c1nc(N)nc(NC2c3ccccc3CC2C)n1 (centres unmarked) [Compound 6.1] | very good pre-emergence control | – | very good herbicidal post-emergence activity |
| Nc1nc(N[C@@H]2CCCc3ccccc32)nc(C(F)F)n1 [Compound 8.256] | very good pre-emergence control | – | very good herbicidal post-emergence activity |
| Cc1ccc2c(c1)[C@H](Nc1nc(N)nc([C@@H](C)F)n1)[C@@H](C)C2 [Compound 2.2] | very good pre-emergence control | – | very good herbicidal post-emergence activity |
| C[C@H](F)c1nc(N)nc(N[C@@H]2CCOc3ccccc32)n1 [Compound 3.20] | very good pre-emergence control | – | very good herbicidal post-emergence activity |
| C[C@@H](Cl)c1nc(N)nc(N[C@@H]2CCOc3ccccc32)n1 [Compound 1.31] | very good pre-emergence control | – | very good herbicidal post-emergence activity |
| COCc1nc(N)nc(N[C@@H]2CCCc3ccccc32)n1 [Compound 8.234] | very good pre-emergence control | – | very good herbicidal post-emergence activity |
| CCC(F)c1nc(N)nc(N[C@@H]2CCc3ccc(F)cc32)n1 (mixture of isomers) [Compound 10.38] | very good pre-emergence control | – | very good herbicidal post-emergence activity |
| Cc1ccc2c(c1)[C@H](Nc1nc(C)nc(N)n1)CCO2 [Compound 8.21] | very good pre-emergence control | – | very good herbicidal post-emergence activity |
| Cc1ccc2c(c1)[C@H](Nc1nc(N)nc(C(F)(F)F)n1)[C@@H](C)C2 [Compound 7.240] | very good pre-emergence control | – | very good herbicidal post-emergence activity |
| C[C@H](Cl)c1nc(N)nc(N[C@@H]2CCc3ccccc32)n1 [Compound 3.24] | very good pre-emergence control | – | very good herbicidal post-emergence activity |
| Cc1nc(N)nc(N[C@@H]2CCc3ccccc32)n1 [Compound 8.1, 2-Amino-4-[(1R)-1-indanylamino]-6-methyl-1,3,5-triazine] | very good pre-emergence control | 94 to 96 | very good herbicidal post-emergence activity |
| Cc1ccc2c(c1)[C@H](Nc1nc(N)nc(C(C)C)n1)CCC2 [Compound 8.71] | very good pre-emergence control | – | very good herbicidal post-emergence activity |
| C[C@@H](F)c1nc(N)nc(N[C@@H]2CCOc3ccccc32)n1 [Compound 1.20, 2-Amino-4-[(4R)4-chromanylamino]-6-[(1R)-1-fluoroethyl]-1,3,5-triazine] | very good pre-emergence control | 110 to 112 | very good herbicidal post-emergence activity |
| Cc1nc(N)nc(N[C@@H]2CCOc3c(F)cccc32)n1 [Compound 8.238] | very good pre-emergence control | – | very good herbicidal post-emergence activity |
| C[C@@H](F)c1nc(N)nc(N[C@H]2c3cc(Cl)ccc3C[C@@H]2C)n1 [Compound 2.4] | very good pre-emergence control | – | very good herbicidal post-emergence activity |
| Cc1ccc2c(c1)C(Nc1nc(N)nc(C(C)F)n1)C(C)C2 (centres unmarked) [Compound 6.2] | very good pre-emergence control | – | very good herbicidal post-emergence activity |
| C[C@@H](F)c1nc(N)nc(N[C@H]2c3ccccc3CC[C@@H]2C)n1 [Compound 2.11] | very good pre-emergence control | – | very good herbicidal post-emergence activity |
| CCc1nc(N)nc(N[C@@H]2CCc3ccc(C)cc32)n1 [Compound 8.25] | very good pre-emergence control | – | very good herbicidal post-emergence activity |
| Cc1ccc2c(c1)[C@H](Nc1nc(N)nc([C@@H](C)Cl)n1)[C@@H](C)C2 [Compound 2.25] | very good pre-emergence control | – | very good herbicidal post-emergence activity |
